What was measured:
[1] = Cytotoxicity assay (CellTiter 96, 72 h); format: cell-based; conditions: human; HEK293 cells, 72 hours incubation
Procedure: 1. Experimental method: the experiment was carried out using HEK293 cell line. The HEK293 cells cultured in DMEM medium (containing 10% fetal bovine serum, 100 IU penicillin and 0.1 mg/ml streptomycin) were trypsinized, counted, and plated in a 96-well plate with each well containing 100 μl suspension and including 3×10^3 cells in total. After culturation in a constant-temperature incubator containing 5% CO2 at 37° C. overnight, different concentrations of the compound were added. After 72 hours of incubation in total, 20 μl CellTiter 96 was added to further incubate for 1 to 4 hours, and then an absorption value at 490 nm was measured on a microplate reader. The changes in cell viability prior to and subsequent to the addition of the compound were observed by comparing the values of the blank control group and the experimental group. 2.

CXCR4 [2] = biological target: T1, CXCR4 (Homo sapiens, UniProt P61073); test: Binding affinity assay on CXCR4 receptor protein (inhibition of 12G5 monoclonal antibody binding, CHO cells stably transfected with CXCR4); parameters: expressed in transfected cells; host or cells: CHO cells, stably transfected (G418 selection); conditions: 40 min; 0.1 μM compound; inhibition of 12G5 antibody binding to CXCR4 on CHO-CXCR4 cells; read-out: Inhibition ratio interval of compounds at 0.1 μM
T1 sequence (P61073 whole entry): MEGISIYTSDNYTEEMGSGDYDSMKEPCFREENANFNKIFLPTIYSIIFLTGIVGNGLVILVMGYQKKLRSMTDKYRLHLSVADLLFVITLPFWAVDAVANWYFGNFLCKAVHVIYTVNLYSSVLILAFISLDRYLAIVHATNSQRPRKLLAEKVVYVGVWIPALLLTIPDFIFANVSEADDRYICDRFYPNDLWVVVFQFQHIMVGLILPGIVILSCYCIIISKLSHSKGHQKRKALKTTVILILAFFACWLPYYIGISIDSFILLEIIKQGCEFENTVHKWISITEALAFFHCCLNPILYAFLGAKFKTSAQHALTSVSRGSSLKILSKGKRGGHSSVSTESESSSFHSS
Procedure: 3. Experimental method: the cell line used for the affinity activity assay of the CXCR4 was a CHO cell line constructed in vitro and stably transfected with CXCR4. The CHO cell line cultured in DMEM medium (containing 10% fetal bovine serum, 100 IU penicillin, 0.1 mg/ml streptomycin and 0.2 mg/ml G418) was trypsinized, washed, counted, and then suspended in an FACS buffer (PBS containing 0.5% BSA and 0.05% NaN3), followed by being plated in a 96-well plate. Each cell contains 100 μl of the reaction system, which includes 5×10^5 cells, 250 ng/ml 12G5 monoclonal antibody and different concentrations of compound for detection. After incubated on ice for 40 min and washed with the FACS buffer, the reaction system was added with the secondary antibody (anti-mouse FITC-labeled IgG) for further incubation on ice for 30 min and then washed twice with the FACS buffer. Absorption values at 485 nmEX/535 nmEM were measured on a microplate reader (PerkinElmer), and fluorescence intensities were recorded. For each compound, a percentage of the compound that inhibits the binding of the 12G5 monoclonal antibody to the receptor CXCR4, i.e. a binding inhibition ratio at 0.1 μM, was calculated. 4. […] The inhibition ratio of the compounds is divided into the following intervals: 75% to 100% for A, 50% to 74% for B, 25% to 49% for C, and 0 to 24% for D.

CXCR4 [3] = biological target: T1, CXCR4; test: Inhibition of CXCR4 induced cell migration (SupT1 cells, SDF-1α, transwell); format: cell-based; conditions: 2 nM SDF-1α, concentration-dependent, FIG. 1
Procedure: 1. Experimental method: the assay on the CXCR4 induced cell migration was detected using SupT1 cell line which naturally expresses the CXCR4. SupT1 cells cultured and suspended in RPMI 1640 (containing 10% fetal bovine serum, 100 IU penicillin and 0.1 mg/ml streptomycin) were collected and then washed with RPMI 1640 containing 0.5% BSA, after which the cells are counted and suspended to a concentration of 3.0×10^7 cells/ml, and then uniformly mixed with different concentrations of compound. Then, 75 μl of the obtained mixture was taken and added to a tranwell insert, and incubated at 37° C. for 30 min. […] After incubation at 37° C. for 3 hours, the tranwell insert was removed, and 40 μl of CellTiter 96 (Promega) was added to each cell of the lower culture plate. After 1 to 4 hours of incubation, absorption values at 490 nm were detected. The experimental results of each group were obtained by at least three independent experiments, and the inhibition curve was plotted by the GraphPad software. 2.

CXCR4 [4] = biological target: T1, CXCR4; test: Inhibition of intracellular calcium mobilization (SupT1 cells, SDF-1α, Fluo-4); format: cell-based; conditions: 50 nM SDF-1α
Procedure: 3. Experimental method: the cell line used in this assay was SupT1. Prior to the experiment, the cells were collected and washed with an experimental buffer (an HBSS buffer containing 20 mM HEPES), and then incubated with a buffer containing 4 μM Fluo-4 and 1 mM probenecid sodium for 30 min at 37° C., after which the residual dye was washed away, and the cells were suspended to a concentration of 2×10^6 cells/ml. Afterwards, 200 μl of the cell suspension was taken and added to a black 96-well plate, and absorption values of the cells at 494 nmEX/516 nmEM were recorded. Subsequently, different concentrations of compound were added and mixed uniformly, and the baseline was recorded. Thereafter, 50 nM of the SDF-1α was added and mixed uniformly. Signals of calcium ions were recorded, and the differences in fluorescence intensity between a group without addition of the compound and groups added with different concentrations of the compound were observed. 4.

| SMILES | IC50 at 72 h [1] | inhibition at 0.1 µM (CXCR4 [2]) | Inhibition of CXCR4 induced cell migration (CXCR4 [3]) | Inhibition of signal of calcium mobilization (CXCR4 [4]; compound at 0.2 μM, FIG. 2) | Inhibition of signal of calcium mobilization (CXCR4 [4]; compound at 1.0 μM, FIG. 3) |
| --- | --- | --- | --- | --- | --- |
| NCCCC[C@H](NCc1ccccn1)C(=O)NCc1ccc(CNCCCNC2CCCCC2)cc1 [Compound 17] | > 50 µM | 75 to 100% | – | – | – |
| CC(C)C[C@H](NCc1ccccn1)C(=O)NCc1ccc(CNCCCNC2CCCCC2)cc1 [Compound 28] | > 50 µM | 25 to 49% | – | – | – |
| N=C(N)NCCC[C@H](NC1CCCc2cccnc21)C(=O)NCc1ccc(CNCCCNC2CCCCC2)cc1 (some centres unmarked) [Compound 14] | – | 0 to 24% | – | – | – |
| N=C(N)NCCC[C@H](NC1CCCCC1)C(=O)NCc1ccc(CNCCCNC2CCCCC2)cc1 [Compound 15] | > 20 µM | 50 to 74% | – | – | – |
| O=C(NCc1ccc(CNCCCNC2CCCCC2)cc1)[C@@H]1Cc2ccccc2CN1Cc1ccccn1 [Compound 30] | > 20 µM | 75 to 100% | – | – | – |
| N=C(N)NCCC[C@H](NCc1ncc[nH]1)C(=O)NCc1ccc(CNCCCNC2CCCCC2)cc1 [Compound 13] | > 50 µM | 50 to 74% | – | – | – |
| O=C(NCc1ccc(CNCCCNC2CCCCC2)cc1)[C@H](CCCNC1CCCCC1)NCc1ccccn1 [Compound 20] | > 50 µM | 50 to 74% | – | – | – |
| O=C(NCc1ccc(CNCCCNC2CCCCC2)cc1)[C@H](Cc1c[nH]cn1)NCc1ccccn1 [Compound 21] | > 50 µM | 75 to 100% | – | – | – |
| C[C@H](NCc1ccccn1)C(=O)NCc1ccc(CNCCCNC2CCCCC2)cc1 [Compound 23] | > 50 µM | 75 to 100% | – | – | – |
| N=C(N)NCCC[C@H](NCc1cc(C(F)(F)F)cc(C(F)(F)F)c1)C(=O)NCc1ccc(CNCCCNC2CCCCC2)cc1 [Compound 12] | > 50 µM | 0 to 24% | – | – | – |
| N=C(N)NCCC[C@H](N)C(=O)N[C@@H](Cc1ccc2ccccc2c1)C(=O)NCc1ccc(CNCCCNC2CCCCC2)cc1 [Compound 32] | > 50 µM | 75 to 100% | – | – | – |
| N=C(N)NCCC[C@H](NCc1ccccn1)C(=O)NCc1ccc(CNCCCNC2CCCCC2)cc1 [Compound 1] | > 50 µM | 75 to 100% | significant inhibiting ability | completely inhibit | – |
| N=C(N)NCCC[C@H](NCc1ccccn1)C(=O)NCc1ccc(CNC2CCCCC2)cc1 [Compound 4] | > 50 µM | 0 to 24% | – | – | – |
| O=C(NCc1ccc(CNCCCNC2CCCCC2)cc1)[C@@H]1CCCN1Cc1ccccn1 [Compound 29] | > 50 µM | 75 to 100% | – | – | – |
| c1cc(CN2CCCNCCNCCCNCC2)ccc1CN1CCCNCCNCCCNCC1 [AMD3100, plerixafor, reference compound] | – | – | – | – | fails to inhibit |
| N=C(N)NCCC[C@@H](NCc1ccccn1)C(=O)NCc1ccc(CNCCCNC2CCCCC2)cc1 [Compound 6] | > 50 µM | 50 to 74% | – | – | – |
| O=C(NCc1ccc(CNCCCNC2CCCCC2)cc1)[C@H](Cc1c[nH]c2ccccc12)NCc1ccccn1 [Compound 26] | > 50 µM | 75 to 100% | – | – | – |

| SMILES | IC50 at 72 h [1] | inhibition at 0.1 µM (CXCR4 [2]) | Inhibition of CXCR4 induced cell migration (CXCR4 [3]) | Inhibition of signal of calcium mobilization (CXCR4 [4]; compound at 0.2 μM, FIG. 2) | Inhibition of signal of calcium mobilization (CXCR4 [4]; compound at 1.0 μM, FIG. 3) |
| --- | --- | --- | --- | --- | --- |
| N=C(N)NCCC[C@H](NCc1ccccn1)C(=O)NCc1ccccc1 [Compound 3] | – | 0 to 24% | – | – | – |
| O=C(NCc1ccc(CNCCCNC2CCCCC2)cc1)[C@H](CCCCNC1CCCCC1)NCc1ccccn1 [Compound 19] | > 50 µM | 75 to 100% | – | – | – |
| O=C(O)C[C@H](NCc1ccccn1)C(=O)NCc1ccc(CNCCCNC2CCCCC2)cc1 [Compound 22] | > 50 µM | 50 to 74% | – | – | – |
| CC(C)NCCCC[C@H](NCc1ccccn1)C(=O)NCc1ccc(CNCCCNC2CCCCC2)cc1 [Compound 18] | > 50 µM | 75 to 100% | – | – | – |
| O=C(NCc1ccc(CNCCCNC2CCCCC2)cc1)[C@H](Cc1ccc(O)cc1)NCc1ccccn1 [Compound 27] | > 50 µM | 50 to 74% | – | – | – |
| N=C(N)NCCC[C@H](NC(=O)c1ccc(F)cc1)C(=O)NCc1ccc(CNCCCNC2CCCCC2)cc1 [Compound 2] | > 50 µM | 50 to 74% | – | – | – |
| O=C(NCc1ccc(CNCCCNC2CCCCC2)cc1)[C@H](Cc1ccc2ccccc2c1)NCc1ccccn1 [Compound 25] | > 10 µM | 50 to 74% | – | – | – |
| N=C(N)NCCC[C@H](NCc1ccc(F)cc1)C(=O)NCc1ccc(CNCCCNC2CCCCC2)cc1 [Compound 8] | > 50 µM | 50 to 74% | – | – | – |
| N=C(N)NCCC[C@H](NC(=O)[C@@H](N)Cc1ccc(O)cc1)C(=O)NCc1ccc(CNCCCNC2CCCCC2)cc1 [Compound 31] | > 50 µM | 75 to 100% | – | – | – |
| N=C(N)NCCC[C@H](N)C(=O)NCc1ccc(CNCCCNC2CCCCC2)cc1 [Compound 5] | > 50 µM | 25 to 49% | – | – | – |
| CN(C)c1ccc(CN[C@@H](CCCNC(=N)N)C(=O)NCc2ccc(CNCCCNC3CCCCC3)cc2)cc1 [Compound 9] | > 50 µM | 75 to 100% | – | – | – |
| O=C(NCc1ccc(CNCCCNC2CCCCC2)cc1)[C@H](CO)NCc1ccccn1 [Compound 24] | > 50 µM | 75 to 100% | – | – | – |
| N=C(N)NCCC[C@H](NCC1CCCCC1)C(=O)NCc1ccc(CNCCCNC2CCCCC2)cc1 [Compound 16] | > 50 µM | 75 to 100% | – | – | – |
| N=C(N)NCCC[C@H](NCc1cccc2ccccc12)C(=O)NCc1ccc(CNCCCNC2CCCCC2)cc1 [Compound 10] | > 50 µM | 50 to 74% | – | – | – |
| N=C(N)NCCC[C@H](NC(=O)C1CCC(F)(F)CC1)C(=O)NCc1ccc(CNCCCNC2CCCCC2)cc1 [Compound 7] | > 50 µM | 50 to 74% | – | – | – |
| N=C(N)NCCC[C@H](NCc1ccc(-c2ccccc2)cc1)C(=O)NCc1ccc(CNCCCNC2CCCCC2)cc1 [Compound 11] | > 50 µM | 50 to 74% | – | – | – |

Source: US11400083B2, “CXCR4 antagonists with amino acid skeleton, preparation therefor and biomedical use thereof” (Tsinghua University, priority 2017, dated 2022)
